Measured values reported in ChEMBL document CHEMBL1126403, “Azaheteroaromatic ethers as carbonyl bioisosteres. Synthesis and evaluation of a novel class of 5-HT3 receptor antagonists” (Bioorg Med Chem Lett, 1992).

Columns and labels:
[1] = system: Rattus norvegicus; experiment: Compound was evaluated in vivo for its potency to antagonise serotonin 5-HT-inducedbradycardia in the anesthetized rat; format: functional
[2] = biological target: T1, Serotonin 3 (5-HT3) receptor (Rattus norvegicus, UniProt P35563+Q9JJ16); experiment: Binding affinity was evaluated in vitro by displacement of [3H]zacopride radioligand from 5-hydroxytryptamine 3 receptor; format: protein-complex assay
T1 sequence (P35563 whole entry): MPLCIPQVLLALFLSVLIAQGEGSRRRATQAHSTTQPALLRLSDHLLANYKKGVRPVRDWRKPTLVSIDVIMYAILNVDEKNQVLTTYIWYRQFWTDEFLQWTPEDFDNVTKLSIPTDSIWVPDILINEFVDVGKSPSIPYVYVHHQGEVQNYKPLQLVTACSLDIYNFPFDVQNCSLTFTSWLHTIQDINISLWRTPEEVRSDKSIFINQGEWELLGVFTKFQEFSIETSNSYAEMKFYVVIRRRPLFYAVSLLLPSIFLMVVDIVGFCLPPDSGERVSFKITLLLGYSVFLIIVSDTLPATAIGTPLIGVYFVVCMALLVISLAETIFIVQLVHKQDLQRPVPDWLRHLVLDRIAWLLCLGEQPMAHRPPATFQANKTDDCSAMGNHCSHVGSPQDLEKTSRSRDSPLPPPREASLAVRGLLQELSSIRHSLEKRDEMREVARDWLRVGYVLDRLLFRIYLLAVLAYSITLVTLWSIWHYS
T1 sequence (Q9JJ16 whole entry): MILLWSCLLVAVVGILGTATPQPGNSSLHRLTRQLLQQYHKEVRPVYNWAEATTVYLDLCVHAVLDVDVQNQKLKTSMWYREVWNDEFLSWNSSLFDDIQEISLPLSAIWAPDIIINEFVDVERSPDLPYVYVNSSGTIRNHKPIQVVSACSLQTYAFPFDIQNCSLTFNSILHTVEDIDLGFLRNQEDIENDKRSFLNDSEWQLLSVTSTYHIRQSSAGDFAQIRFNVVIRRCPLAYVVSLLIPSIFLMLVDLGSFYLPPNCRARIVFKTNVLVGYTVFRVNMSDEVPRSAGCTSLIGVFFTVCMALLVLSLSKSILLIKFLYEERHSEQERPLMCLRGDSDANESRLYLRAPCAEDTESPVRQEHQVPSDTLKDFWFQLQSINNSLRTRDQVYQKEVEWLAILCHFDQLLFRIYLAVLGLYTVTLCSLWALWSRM

CN1C2CCC1CC(Oc1ccc3ccccc3n1)C2 (stereo not drawn)
Dose [1]: 10 mg/kg | IC50 [2]: 39.6 nM

CN1[C@@H]2CC[C@H]1C[C@@H](OC(=O)c1cc(Cl)cc(Cl)c1)C2 [BEMESETRON]
Dose [1]: 0.1 mg/kg | IC50 [2]: 42.6 nM

CN1[C@@H]2CC[C@H]1C[C@@H](OC(=O)c1c[nH]c3ccccc13)C2 [TROPISETRON]
Dose [1]: 0.01 mg/kg | IC50 [2]: 2.3 nM

CN1C2CCC1CC(Oc1nc3ccccc3s1)C2 (stereo not drawn)
Dose [1]: 0.1 mg/kg | IC50 [2]: 6.9 nM

c1ccc2nc(OC3CN4CCC3CC4)ccc2c1 (stereo not drawn)
Dose [1]: 3 mg/kg | IC50 [2]: 48 nM

COc1cc(N)c(Cl)cc1C(=O)NC1CN2CCC1CC2 (stereo not drawn) [ZACOPRIDE]
Dose [1]: 0.01 mg/kg | IC50 [2]: 2.2 nM

Cc1nccn1CC1CCc2c(c3ccccc3n2C)C1=O (stereo not drawn) [ONDANSETRON]
Dose [1]: 0.01 mg/kg
